ChEMBL document CHEMBL1201862, “PubChem BioAssay data set” (2004)
Active and inactive are the calls of the source.

Assays:
Beta-galactosidase = Beta-galactosidase (Escherichia coli, UniProt Q8VNN2); assay: Dose response counterscreen for EBI2 assay utilizing the enzyme, b-galactosidase.; type: functional
[1] = microbe, parasite or virus in culture; type: functional; details: Mycobacterium tuberculosis
[2] = inhibitors of HIV Env-driven cell fusion, dose response, cherry-pick (AID 652057); type: functional, cell-based
[3] = CEM21 lymphoblast cell cytotoxicity, dose response, cytotoxicity control for viral fusion inhibitor project, CellTiter-Glo luminescence, cherry-picked (AID 652042); type: functional, cell-based;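 further: potency for signal decrease meaning cytotoxicity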
[4] = ZM109 Env clade C HIV-1 fusion inhibitors, dose response, HeLa effector, CEM target cells, luciferase, cherry-pick (AID 652058); type: functional, cell-based
[5] = off-target signal loss in HeLa-CEM21 co-culture – HeLa F-luc CTL cells, cherry-picked, counter-screen for HIV-1 Env fusion inhibitor project, dose response (AID 652040); type: functional, cell-based;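 further: potency for signal decrease marking cytotoxic or nonspecific inhibition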
[6] = inhibitors of clade B AD8 Env fusion, dose response, cell-based, cherry-pick (AID 652062); type: functional;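 further: luciferase signal from cell-cell fusion driven by HIV-1 clade B AD8 Env; potency is for inhibitors of fusion seen as a drop in luminescence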
Leucine aminopeptidase = target: T1, Leucine aminopeptidase (Plasmodium falciparum 3D7, UniProt Q8IL11); assay: P. falciparum M17LAP inhibitors, primary screen, biochemical, fluorogenic H-Leu-NHMec substrate, 1536-well (AID 1619); type: functional
T1 sequence (Q8IL11 whole entry): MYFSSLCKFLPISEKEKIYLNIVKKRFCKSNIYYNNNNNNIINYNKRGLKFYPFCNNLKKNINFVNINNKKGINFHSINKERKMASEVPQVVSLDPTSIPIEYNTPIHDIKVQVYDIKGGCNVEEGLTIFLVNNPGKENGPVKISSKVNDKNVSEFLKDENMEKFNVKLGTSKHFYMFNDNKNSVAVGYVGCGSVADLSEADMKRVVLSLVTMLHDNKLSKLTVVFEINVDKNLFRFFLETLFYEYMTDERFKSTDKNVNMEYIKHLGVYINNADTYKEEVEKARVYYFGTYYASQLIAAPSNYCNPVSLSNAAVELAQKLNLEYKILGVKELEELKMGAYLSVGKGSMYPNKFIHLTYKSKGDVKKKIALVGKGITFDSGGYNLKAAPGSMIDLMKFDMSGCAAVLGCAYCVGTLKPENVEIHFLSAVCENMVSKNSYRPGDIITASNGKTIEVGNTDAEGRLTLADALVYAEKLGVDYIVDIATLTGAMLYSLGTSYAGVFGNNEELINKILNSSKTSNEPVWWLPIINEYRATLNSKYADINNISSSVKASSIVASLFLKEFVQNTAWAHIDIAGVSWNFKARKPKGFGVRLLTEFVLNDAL

Large T antigen = Large T antigen (Simian virus 40, UniProt P03070); type: functional, Betapolyomavirus macacae;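 further: Confirmatory-stage PubChem screen for compounds that inhibit SV40 T antigen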
Large T antigen, sequence (P03070 whole entry): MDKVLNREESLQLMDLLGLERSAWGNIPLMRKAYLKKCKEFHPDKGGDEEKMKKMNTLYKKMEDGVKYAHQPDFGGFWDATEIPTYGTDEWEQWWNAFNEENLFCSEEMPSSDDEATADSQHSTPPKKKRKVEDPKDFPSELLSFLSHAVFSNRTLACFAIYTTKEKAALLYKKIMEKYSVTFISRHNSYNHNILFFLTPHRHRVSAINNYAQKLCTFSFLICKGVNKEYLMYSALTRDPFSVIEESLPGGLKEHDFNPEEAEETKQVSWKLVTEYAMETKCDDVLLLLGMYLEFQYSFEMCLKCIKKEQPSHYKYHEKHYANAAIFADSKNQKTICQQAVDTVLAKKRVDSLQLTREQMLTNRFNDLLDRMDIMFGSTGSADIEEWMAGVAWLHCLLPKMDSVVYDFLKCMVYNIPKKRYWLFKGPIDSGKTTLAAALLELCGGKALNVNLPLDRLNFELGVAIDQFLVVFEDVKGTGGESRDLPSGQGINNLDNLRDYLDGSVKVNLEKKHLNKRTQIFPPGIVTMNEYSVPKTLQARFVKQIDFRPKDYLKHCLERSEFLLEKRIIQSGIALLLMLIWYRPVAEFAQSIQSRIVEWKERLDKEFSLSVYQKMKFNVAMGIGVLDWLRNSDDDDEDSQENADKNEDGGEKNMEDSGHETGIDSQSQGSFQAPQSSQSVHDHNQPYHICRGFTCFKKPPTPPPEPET

Caspase-3 = target: T2, Caspase-3 (Homo sapiens, UniProt P42574); type: functional;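 further: Dose-response selectivity test against caspase-3 for candidate inhibitors of sentrin-specific proteases (SENPs)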
T2 sequence (P42574 whole entry): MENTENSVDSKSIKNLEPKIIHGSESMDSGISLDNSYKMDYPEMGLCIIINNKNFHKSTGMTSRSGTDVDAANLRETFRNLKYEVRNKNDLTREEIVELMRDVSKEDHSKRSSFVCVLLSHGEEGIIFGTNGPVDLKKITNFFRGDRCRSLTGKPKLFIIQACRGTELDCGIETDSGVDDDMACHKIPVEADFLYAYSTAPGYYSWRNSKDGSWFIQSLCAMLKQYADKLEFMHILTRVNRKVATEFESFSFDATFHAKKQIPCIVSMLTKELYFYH

[7] = target: T3, Sentrin-specific protease 7 (Homo sapiens, UniProt Q9BQF6); type: functional;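 further: Luminescence-based dose-response confirmation of ultra-high-throughput screening hits, measuring inhibition of SENP7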
T3 sequence (Q9BQF6 whole entry): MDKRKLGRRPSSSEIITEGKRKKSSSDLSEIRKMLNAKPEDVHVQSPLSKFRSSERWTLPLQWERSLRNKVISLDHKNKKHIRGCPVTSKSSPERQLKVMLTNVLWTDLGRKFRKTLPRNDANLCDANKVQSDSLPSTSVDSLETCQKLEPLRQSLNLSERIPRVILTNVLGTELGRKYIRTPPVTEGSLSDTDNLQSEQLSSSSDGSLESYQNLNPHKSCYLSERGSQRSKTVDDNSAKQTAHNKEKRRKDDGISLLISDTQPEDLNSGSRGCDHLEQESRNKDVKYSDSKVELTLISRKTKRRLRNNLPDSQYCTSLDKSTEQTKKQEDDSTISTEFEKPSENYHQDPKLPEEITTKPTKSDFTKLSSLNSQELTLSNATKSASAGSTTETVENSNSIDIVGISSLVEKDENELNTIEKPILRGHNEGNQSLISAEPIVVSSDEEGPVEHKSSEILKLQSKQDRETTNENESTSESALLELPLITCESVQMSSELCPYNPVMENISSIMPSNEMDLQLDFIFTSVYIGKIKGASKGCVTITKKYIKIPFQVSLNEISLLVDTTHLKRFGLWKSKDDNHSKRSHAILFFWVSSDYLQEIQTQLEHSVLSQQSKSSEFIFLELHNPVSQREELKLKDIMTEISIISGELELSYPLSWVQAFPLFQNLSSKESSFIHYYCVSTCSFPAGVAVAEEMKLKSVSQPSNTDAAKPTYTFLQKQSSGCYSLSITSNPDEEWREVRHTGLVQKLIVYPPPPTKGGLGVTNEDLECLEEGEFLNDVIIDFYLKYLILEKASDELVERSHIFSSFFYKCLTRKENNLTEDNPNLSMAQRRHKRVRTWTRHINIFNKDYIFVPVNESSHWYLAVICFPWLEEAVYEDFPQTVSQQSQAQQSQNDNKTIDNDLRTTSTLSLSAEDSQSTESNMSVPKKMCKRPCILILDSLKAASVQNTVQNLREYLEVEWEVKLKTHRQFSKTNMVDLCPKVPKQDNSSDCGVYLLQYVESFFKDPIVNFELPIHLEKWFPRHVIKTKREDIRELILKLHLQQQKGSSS

[8] = target: T4, Sentrin-specific protease 6 (Homo sapiens, UniProt Q9GZR1); type: functional;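 further: Luminescence-based dose-response confirmatory assay of SENP6 inhibition, following up an ultra-high-throughput screen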
T4 sequence (Q9GZR1 whole entry): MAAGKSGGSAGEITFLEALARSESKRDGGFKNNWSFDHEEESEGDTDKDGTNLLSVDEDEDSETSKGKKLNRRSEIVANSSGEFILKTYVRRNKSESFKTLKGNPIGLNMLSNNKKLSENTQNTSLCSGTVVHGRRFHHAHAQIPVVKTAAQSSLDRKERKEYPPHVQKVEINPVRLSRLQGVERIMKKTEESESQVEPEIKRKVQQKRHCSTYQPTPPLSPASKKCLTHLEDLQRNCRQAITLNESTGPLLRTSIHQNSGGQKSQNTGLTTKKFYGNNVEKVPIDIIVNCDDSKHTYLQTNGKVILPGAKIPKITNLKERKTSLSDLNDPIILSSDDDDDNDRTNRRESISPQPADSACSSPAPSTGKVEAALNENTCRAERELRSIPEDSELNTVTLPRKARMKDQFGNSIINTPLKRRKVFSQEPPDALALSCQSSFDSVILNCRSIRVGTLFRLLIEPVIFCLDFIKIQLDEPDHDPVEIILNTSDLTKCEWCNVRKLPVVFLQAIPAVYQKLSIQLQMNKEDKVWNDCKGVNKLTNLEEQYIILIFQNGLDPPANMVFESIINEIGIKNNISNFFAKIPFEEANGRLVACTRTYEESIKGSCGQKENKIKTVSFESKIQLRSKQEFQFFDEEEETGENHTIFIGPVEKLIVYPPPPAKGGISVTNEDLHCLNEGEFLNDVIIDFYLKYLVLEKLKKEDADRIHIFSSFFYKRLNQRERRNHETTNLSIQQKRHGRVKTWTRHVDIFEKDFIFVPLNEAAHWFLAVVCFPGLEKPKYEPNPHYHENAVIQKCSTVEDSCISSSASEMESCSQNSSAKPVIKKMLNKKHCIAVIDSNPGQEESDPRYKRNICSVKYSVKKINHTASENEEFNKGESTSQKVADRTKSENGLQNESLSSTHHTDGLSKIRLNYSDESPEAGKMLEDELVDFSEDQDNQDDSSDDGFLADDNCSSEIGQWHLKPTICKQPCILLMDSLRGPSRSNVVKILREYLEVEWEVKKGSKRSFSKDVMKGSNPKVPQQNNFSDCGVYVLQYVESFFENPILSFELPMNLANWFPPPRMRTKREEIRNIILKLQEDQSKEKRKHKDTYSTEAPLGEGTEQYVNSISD

[9] = target: T5, Sentrin-specific protease 8 (Homo sapiens, UniProt Q96LD8); type: functional;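 further: luminescence read-out of SENP8 inhibition, dose-response confirmation following an ultra-high-throughput screen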
T5 sequence (Q96LD8 whole entry): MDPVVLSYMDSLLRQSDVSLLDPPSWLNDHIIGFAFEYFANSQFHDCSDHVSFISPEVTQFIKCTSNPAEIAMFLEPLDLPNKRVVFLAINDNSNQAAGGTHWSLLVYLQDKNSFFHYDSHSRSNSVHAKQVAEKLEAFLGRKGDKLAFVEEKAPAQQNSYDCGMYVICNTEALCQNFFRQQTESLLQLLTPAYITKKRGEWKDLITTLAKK

P388/ADR = assay: cells; type: functional; details: Mus musculus
SN12K1 = assay: cells; type: functional; details: Homo sapiens
P388 = assay: cells; type: functional; details: Mus musculus
[10] = miR-122 activators in hepatoma reporter cells, dose response, cell-based, Huh7 psiCHECK-miR122, Renilla luciferase, cherry-picked (AID 651956); type: functional;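 further: huh7 hepatoma cells stably carrying a psiCHECK-2 miR-122 sensor plasmid; renilla luciferase signal reporting endogenous miR-122 activity after 48 h compound exposure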
[11] = HEK293T cytotoxicity, dose response, cytotoxicity control for miR-122 modulator project, cell-based, activator set, cherry-pick (AID 720690); type: functional;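 further: HEK293T human cells scored for general mammalian cytotoxicity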

Beta-galactosidase, sequence (Q8VNN2 whole entry): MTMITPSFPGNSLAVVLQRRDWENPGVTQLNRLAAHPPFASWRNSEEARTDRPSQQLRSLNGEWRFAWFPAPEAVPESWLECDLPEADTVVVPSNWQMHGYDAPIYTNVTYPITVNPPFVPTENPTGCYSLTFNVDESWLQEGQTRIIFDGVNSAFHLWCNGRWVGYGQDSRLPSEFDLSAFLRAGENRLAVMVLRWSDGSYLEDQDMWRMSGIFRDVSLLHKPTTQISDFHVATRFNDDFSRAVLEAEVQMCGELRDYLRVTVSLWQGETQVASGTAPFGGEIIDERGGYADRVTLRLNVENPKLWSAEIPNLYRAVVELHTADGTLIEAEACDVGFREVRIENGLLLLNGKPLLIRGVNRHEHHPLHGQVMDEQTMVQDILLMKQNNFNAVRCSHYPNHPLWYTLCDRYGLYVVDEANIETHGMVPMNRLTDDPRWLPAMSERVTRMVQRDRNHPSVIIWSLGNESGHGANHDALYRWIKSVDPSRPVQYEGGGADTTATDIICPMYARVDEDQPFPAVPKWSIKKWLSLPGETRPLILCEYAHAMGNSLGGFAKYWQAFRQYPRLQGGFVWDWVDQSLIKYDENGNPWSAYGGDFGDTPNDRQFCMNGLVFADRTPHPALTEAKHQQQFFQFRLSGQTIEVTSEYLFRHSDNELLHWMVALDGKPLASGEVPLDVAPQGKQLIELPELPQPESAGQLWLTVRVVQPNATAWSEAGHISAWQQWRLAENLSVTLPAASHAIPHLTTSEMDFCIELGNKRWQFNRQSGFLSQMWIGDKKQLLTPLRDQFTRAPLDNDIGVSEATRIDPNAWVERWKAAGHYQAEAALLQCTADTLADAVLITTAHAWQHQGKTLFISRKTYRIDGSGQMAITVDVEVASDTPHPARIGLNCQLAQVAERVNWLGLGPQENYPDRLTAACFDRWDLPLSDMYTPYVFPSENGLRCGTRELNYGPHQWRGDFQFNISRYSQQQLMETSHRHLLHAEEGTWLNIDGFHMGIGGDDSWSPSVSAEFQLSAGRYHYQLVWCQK

In the case of CCOc1ccc(NC(S)=Nc2ccc(C)c([N+](=O)[O-])c2)cc1, the IC50 (Beta-galactosidase) is reported as 131 µM (inactive).
In the case of Cc1ccccc1-c1nc(CN2CCC(C(=O)NCCC3=CCCCC3)CC2)c(C)o1, the CC50 [1] is reported as > 40 µM (active), the AC50 [2] is reported as 4.21 µM (active) and the AC50 [3] is reported as 25.6 µM (active). The AC50 [4] was 6.35 µM (active), the AC50 [5] was 7.7 µM (active) and the AC50 [6] was 7.96 µM (active).
With Cc1[nH]c2ccc(C(=O)N3CCN(c4ccc(F)cc4)CC3)cc2c1C the IC50 (Beta-galactosidase) was > 80 µM (inactive).
For CCN(CC)c1ccc(NC(=O)COC(=O)c2cccs2)cc1, the IC50 (Leucine aminopeptidase) was 15.7 µM (active), the IC50 (Large T antigen) was 15.2 µM (active) and the IC50 (Caspase-3) was 16.2 µM (active). For the same molecule, the IC50 [7] was 11.7 µM (active), the IC50 [8] was 98.2 µM (active) and the IC50 [9] was > 100 µM (inactive).
For CN1CCN(C(=O)/C=C/c2ccc(Cl)c(Cl)c2)CC1, the IC50 (Beta-galactosidase) was > 80 µM (inactive).
With CC(=O)Nc1ccc(C(=O)COC(=O)C2CCCCC2)c(F)c1 the IC50 (Caspase-3) was 17.5 µM (active), the IC50 [7] was 6.32 µM (active) and the IC50 [8] was 20.4 µM (active). The IC50 [9] was 65.6 µM (active).
For Nc1ccc(/C=C/c2ccc3ncccc3c2)cc1, the IC50 (Caspase-3) was 22.8 µM (active), the IC50 [7] was 10.4 µM (active) and the IC50 [8] was 9.32 µM (active). For the same molecule, the IC50 [9] was > 100 µM (inactive).
For CC1=C(C(=O)Nc2ccc(Cl)c(C(=O)OC(C)C)c2)SCCO1, the GI50 (P388/ADR) was 29.2 µM (inactive), the GI50 (SN12K1) was 58.6 µM (inactive) and the GI50 (P388) was 23.2 µM (inactive).
In the case of CCC1(O)CC(OC2CC(N(C)C)C(OC3CC4OC5CC(=O)C(C)OC5OC4C(C)O3)C(C)O2)c2c(cc3c(c2O)C(=O)c2c(O)ccc(O)c2C3=O)C1C(=O)OC (configuration not stated), the GI50 (P388/ADR) is reported as 0.000703 µM (active), the GI50 (SN12K1) is reported as 0.00741 µM (active) and the GI50 (P388) is reported as 0.000368 µM (active).
For CN(C)C(CN)CC1=C(CC(CN)N(C)C)CCC1 (configuration not stated), the GI50 (P388/ADR) was > 100 µM (inactive), the GI50 (SN12K1) was > 100 µM (inactive) and the GI50 (P388) was > 100 µM (inactive).
For COc1cc2c(cc1OC)C(Cc1c3ccccc3cc3ccccc13)N(C)CC2 (configuration not stated), the GI50 (P388/ADR) was 15.8 µM (inactive), the GI50 (SN12K1) was 15.5 µM (inactive) and the GI50 (P388) was 18.7 µM (inactive).
In the case of CCOC(=O)/C(O)=C1\C(=O)N(C)C(=O)C1c1ccc(OC)c(OC)c1 (configuration not stated), the GI50 (P388/ADR) is reported as > 31.6 µM (inactive), the GI50 (SN12K1) is reported as > 100 µM (inactive) and the GI50 (P388) is reported as > 100 µM (inactive).
For Cc1cc(C)n(-c2ccc(C(=O)N3CCN(S(=O)(=O)c4ccc(Br)cc4Cl)CC3)cc2)n1, the IC50 (Beta-galactosidase) was > 80 µM (inactive).
For C[C@@H]1CCCCO[C@@H](CN(C)CC2CCCCC2)[C@H](C)CN([C@@H](C)CO)C(=O)c2cc(NC(=O)Nc3cccc4ccccc34)ccc2O1, the AC50 [10] was 5.03 µM (active) and the AC50 [11] was 47.3 µM (active).
With CNC[C@@H]1Oc2cc(C#Cc3cccc(OC)c3)ccc2S(=O)(=O)N([C@@H](C)CO)C[C@@H]1C the AC50 [10] was 9.73 µM (active) and the AC50 [11] was 14.9 µM (active).
With C[C@H](CO)N1C[C@H](C)[C@H](CN(C)S(=O)(=O)c2cccc(F)c2)Oc2ncc(C#CC3CCCCC3)cc2C1=O the AC50 [10] was 6.43 µM (active) and the AC50 [11] was 32.3 µM (active).
In the case of COc1ccc2c3c([nH]c2c1)[C@@H](CO)N(C(=O)Nc1cccc(F)c1)CC31CCN(S(=O)(=O)c2ccccc2)CC1, the AC50 [2] is reported as 23.2 µM (active) and the AC50 [3] is reported as 21 µM (active).
